One compound from ChEMBL document CHEMBL4823324, “Discovery of BMS-986318, a Potent Nonbile Acid FXR Agonist for the Treatment of Nonalcoholic Steatohepatitis” (ACS Med Chem Lett, 2021) can be followed below.

In one data set the target is Cytochrome P450 3A4 (Homo sapiens, UniProt P08684). Kind of data set: Inhibition of CYP3A4 (unknown origin) expressed in baculovirus infected insect supersomes preincubated for 15 mins followed by addition of NADPH regenerating system by fluorescence based analysis. In kind it is ADME.
Chain of Cytochrome P450 3A4 (P08684 whole entry): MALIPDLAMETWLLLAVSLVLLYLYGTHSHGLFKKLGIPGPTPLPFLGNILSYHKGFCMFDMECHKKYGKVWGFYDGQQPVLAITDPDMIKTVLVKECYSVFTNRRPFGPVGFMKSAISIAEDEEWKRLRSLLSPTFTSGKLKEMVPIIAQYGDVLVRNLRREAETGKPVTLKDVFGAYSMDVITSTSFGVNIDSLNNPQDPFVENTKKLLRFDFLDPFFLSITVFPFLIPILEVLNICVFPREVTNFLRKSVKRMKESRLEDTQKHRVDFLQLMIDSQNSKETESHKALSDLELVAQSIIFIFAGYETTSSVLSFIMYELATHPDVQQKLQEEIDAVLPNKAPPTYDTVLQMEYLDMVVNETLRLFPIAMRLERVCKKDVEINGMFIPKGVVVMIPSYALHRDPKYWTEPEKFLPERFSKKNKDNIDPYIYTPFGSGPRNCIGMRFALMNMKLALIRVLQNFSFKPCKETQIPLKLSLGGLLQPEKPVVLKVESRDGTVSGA
Data set [1] is described as follows: Clearance in C57B6 mouse at 1 mg/kg, iv. In kind it is ADME, organism-based. As to conditions: in vivo.
For data set [2], the target named is T1, Nuclear receptor ROR-alpha (Homo sapiens, UniProt P35398).
T1 sequence (P35398 whole entry): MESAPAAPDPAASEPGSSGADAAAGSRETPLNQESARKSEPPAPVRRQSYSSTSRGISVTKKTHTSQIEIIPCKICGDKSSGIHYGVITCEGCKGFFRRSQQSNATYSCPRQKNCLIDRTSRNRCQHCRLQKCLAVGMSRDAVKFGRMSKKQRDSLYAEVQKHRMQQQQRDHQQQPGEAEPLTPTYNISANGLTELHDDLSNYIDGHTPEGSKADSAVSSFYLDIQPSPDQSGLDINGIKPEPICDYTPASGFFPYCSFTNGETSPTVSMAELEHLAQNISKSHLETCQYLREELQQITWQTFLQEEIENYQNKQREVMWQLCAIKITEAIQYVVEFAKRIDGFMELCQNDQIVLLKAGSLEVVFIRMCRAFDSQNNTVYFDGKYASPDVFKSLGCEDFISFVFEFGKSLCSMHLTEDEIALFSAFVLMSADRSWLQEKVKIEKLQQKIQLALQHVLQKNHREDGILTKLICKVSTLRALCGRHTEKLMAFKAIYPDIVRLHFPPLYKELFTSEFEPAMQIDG
The experiment in a line: Agonist activity at human RORalpha (272 to 557 residues) co-expressed with Gal4-luciferase reporter in human Jurkat cells incubated for 18 hrs by Steady-Glo luciferase reporter based luminescence analysis. In kind it is cell-based. (A reporter such as luciferase makes a cellular process visible.)

A short description of data set [3]: Oral bioavailability in C57B6 mouse at 2 mg/kg administered as suspension. Conditions: in vivo. In kind it is ADME, organism-based.
Data set [4] can be described thus: AUC in C57B6 mouse at 1 mg/kg, iv. As to conditions: in vivo. In kind it is ADME, organism-based. Details: dose 1 mg/kg.
Data set [5] is described as follows: AUC in C57B6 mouse at 2 mg/kg, po administered as solution. In kind it is ADME, organism-based. Details: dose 2 mg/kg. Conditions: in vivo.
The nature of data set [6]: Metabolic stability in human liver microsomes assessed as half life. In kind it is ADME, Microsome. A general note: Liver microsomes are a subcellular fraction often used to study metabolism.
Data set [7] is described as follows: Cmax in C57B6 mouse at 1 mg/kg, iv. Details: route intravenous, dose 1 mg/kg. As to conditions: in vivo. In kind it is ADME, organism-based.
The target of a further data set is T2, Cytochrome P450 2C8 (Homo sapiens, UniProt P10632).
T2 sequence (P10632 whole entry): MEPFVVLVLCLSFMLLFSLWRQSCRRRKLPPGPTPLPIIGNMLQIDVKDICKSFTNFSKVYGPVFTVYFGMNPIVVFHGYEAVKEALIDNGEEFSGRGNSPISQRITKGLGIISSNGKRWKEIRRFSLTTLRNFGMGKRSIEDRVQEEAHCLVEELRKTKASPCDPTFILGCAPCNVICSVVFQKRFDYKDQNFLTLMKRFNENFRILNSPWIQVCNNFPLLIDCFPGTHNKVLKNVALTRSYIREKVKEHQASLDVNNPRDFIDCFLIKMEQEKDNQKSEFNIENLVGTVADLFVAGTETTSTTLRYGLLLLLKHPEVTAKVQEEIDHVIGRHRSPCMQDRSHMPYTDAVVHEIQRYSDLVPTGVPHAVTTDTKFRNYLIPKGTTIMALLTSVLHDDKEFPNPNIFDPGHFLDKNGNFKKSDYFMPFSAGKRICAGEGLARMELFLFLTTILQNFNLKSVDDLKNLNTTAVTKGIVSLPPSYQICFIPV
The experiment in a line: Inhibition of CYP2C8 (unknown origin) expressed in baculovirus infected insect supersomes preincubated for 15 mins followed by addition of NADPH regenerating system and measured after 2 hrs by fluorescence based analysis. In kind it is ADME.

The nature of data set [8]: Plasma protein binding in C57B6 mouse assessed as unbound fraction at 1 mg/kg, iv. In kind it is ADME, organism-based. As to conditions: in vivo.
The next data set deals with T3, Androgen receptor (Homo sapiens, UniProt P10275).
T3 sequence (P10275 whole entry): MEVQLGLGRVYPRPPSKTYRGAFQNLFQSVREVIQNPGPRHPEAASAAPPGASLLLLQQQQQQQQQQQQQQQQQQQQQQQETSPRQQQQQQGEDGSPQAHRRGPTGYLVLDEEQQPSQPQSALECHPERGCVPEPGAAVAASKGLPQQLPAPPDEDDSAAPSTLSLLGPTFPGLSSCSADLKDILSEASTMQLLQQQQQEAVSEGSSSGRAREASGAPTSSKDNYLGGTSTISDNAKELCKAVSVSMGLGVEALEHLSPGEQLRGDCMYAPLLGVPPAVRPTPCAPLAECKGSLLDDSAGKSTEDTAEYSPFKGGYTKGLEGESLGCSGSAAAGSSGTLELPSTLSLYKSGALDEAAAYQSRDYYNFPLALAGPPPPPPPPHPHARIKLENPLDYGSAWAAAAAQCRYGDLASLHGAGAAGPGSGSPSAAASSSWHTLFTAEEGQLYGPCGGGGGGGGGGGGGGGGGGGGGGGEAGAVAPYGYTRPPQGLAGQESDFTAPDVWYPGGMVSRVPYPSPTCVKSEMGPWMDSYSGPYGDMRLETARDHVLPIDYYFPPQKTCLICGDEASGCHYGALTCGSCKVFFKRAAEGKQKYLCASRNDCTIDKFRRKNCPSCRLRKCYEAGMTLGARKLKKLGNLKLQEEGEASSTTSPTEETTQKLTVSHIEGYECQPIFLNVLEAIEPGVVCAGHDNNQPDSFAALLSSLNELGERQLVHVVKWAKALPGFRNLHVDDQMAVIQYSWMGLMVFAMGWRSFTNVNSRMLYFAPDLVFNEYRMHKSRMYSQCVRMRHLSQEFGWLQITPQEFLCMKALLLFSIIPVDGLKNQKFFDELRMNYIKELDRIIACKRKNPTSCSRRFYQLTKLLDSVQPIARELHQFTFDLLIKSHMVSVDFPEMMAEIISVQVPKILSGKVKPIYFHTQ
The experiment in a line: Activation of androgen receptor (unknown origin) by fluorescence polarization based competition assay. For orientation: Fluorescence polarisation rises when a labelled molecule tumbles more slowly, as on binding a larger partner.

A short description of data set [9]: AUC in C57B6 mouse at 2 mg/kg, po administered as suspension. Further details: dose 2 mg/kg. The data set is classed as ADME, organism-based. Conditions: in vivo.
Data set [10] concerns the target T1, Nuclear receptor ROR-alpha. Kind of data set: Antagonist activity at human RORalpha (272 to 557 residues) co-expressed with Gal4-luciferase reporter in human Jurkat cells incubated for 18 hrs by Steady-Glo luciferase reporter based luminescence analysis. In kind it is cell-based.
Data set [11] is described as follows: Oral bioavailability in C57B6 mouse at 2 mg/kg administered as solution. In kind it is ADME, organism-based. Conditions: in vivo.

What is called IC50 is the concentration that gives 50% inhibition. Higher therefore signals weaker potency in that assay. What is called clearance is a measure of how efficiently the substance is removed, as volume per time. Broadly, the EC50 is the concentration at which the effect is half-maximal. A lower EC50 goes with an effect from little substance. Broadly, the bioavailability is dose-corrected exposure relative to a reference, in per cent. Low readings indicate poor availability, high ones good availability. In general, AUC refers to the area under the concentration-time curve, a measure of exposure. As a reminder, the half-life is the time in which the quantity being followed falls by half. A word on the Cmax: it is the highest concentration seen after dosing. Regarding `O=C(O)c1cc(C(F)(F)F)c2cc(N3CCC4(C=C(c5c(-c6c(Cl)cncc6Cl)noc5C5CC5)C4)CC3)ccc2n1`, the IC50 against Cytochrome P450 3A4 was greater than 40 µM; on Cytochrome P450 2C8 it was 4.2 µM; in [10], greater than 40 µM. This compound also gave a clearance in [1] of 3.8 mL/min/kg. The EC50 (in [2]; at Androgen receptor) was greater than 40 µM in each case. The bioavailability in data set [3] was found to be 26%; in data set [11], 36%. Moreover, the area under the curve (AUC) is 9.32 µM·h in data set [4], 6.65 µM·h in [5] and 4.76 µM·h in data set [9]. In data set [6], the half-life is greater than 120 min. The same compound yielded a Cmax in data set [7] of 1490 nM. Also, the Fu in data set [8] is on record as less than 0.01%.
